In US20230056935A1, “Compound, Antimicrobial Deodorant Composition Comprising Same, and Method for Producing Same” (LG Chem, Ltd., priority 2020, published 2023):

Columns and labels:
[1] = Deodorizing property evaluation (SPME, GC/MS peak area); conditions: total 80 mg
Protocol: To a test solution including the compound in 1 phr to 20 phr with respect to a total weight of 80 mg of a super absorbent polymer and the compound, 20 mL of a malodorous solution is introduced, isovaleraldehyde is adsorbed using a solid-phase microextraction method, and a GC/MS peak area of the adsorbed isovaleraldehyde is analyzed through a GC/MS analysis. For a control solution prepared in the same manner except that the compound is not introduced in the test solution, a GC/MS peak area of isovaleraldehyde is analyzed in the same manner, and, using the GC/MS peak area values of the test solution and the control solution, a deodorization rate is calculated according to the following Mathematical Formula 2.
Compound 1 prepared in Preparation Example 1 was introduced to a vial in a content as described in the following Table 2, and after introducing a super absorbent polymer (LG Chem., GS-301N) thereto so that a total content of the super absorbent polymer and Compound 1 becomes 80 mg, a malodorous solution (20 mL) was introduced thereto to prepare a test solution. As the malodorous solution, a solution in which diacetyl (242 ug/mL), isovaleraldehyde (49 ug/mL), dimethyl disulfide (30 ug/mL), dimethyl trisulfide (26 ug/mL) and p-cresol (2508 ug/mL) are mixed was 1/1000 diluted using an aqueous sodium chloride solution (0.9% by weight) and used. Volatile substances generated in the test solution was adsorbed using a solid-phase microextraction method (SPME), and through a GC/MS analysis, GC/MS peak areas of the adsorbed malodorous substances (diacetyl, isovaleraldehyde, dimethyl disulfide, dimethyl trisulfide and p-cresol) were each analyzed. For a control solution prepared in the same manner except that Compound 1 was not included, peak areas of the malodorous substances were analyzed in the same manner, and deodorization rates thereof were each calculated according to the following Mathematical Formula 2.
(Cs: GC/MS peak areas of malodorous substances test solution, C0: GC/MS peak areas of malodorous substances of control solution)

[2] = system: Proteus mirabilis (ATCC 29906); test: Antibacterial property evaluation, bacterial growth inhibition (absorbance at 600 nm); type: cell-based; conditions: 16 hours at 35° C.; for Absorbance: 600 nm
Protocol: (§1) After introducing 1 mg to 200 mg of the compound to a nutrient broth culture medium (25 ml) inoculated with bacteria 3000±300 CFU/ml, the result is incubated for 16 hours at 35° C. in a shaking incubator to prepare a test culture medium. A control culture medium is prepared in the same manner except that the compound is not introduced in the test culture medium. For the test culture medium and the control culture medium, absorbance at a wavelength of 600 nm is measured using a UV-Vis spectrophotometer, and using the measured absorbance value, a bacterial growth inhibition rate (%) is calculated according to the following Mathematical Formula 1.
(§2) To a nutrient broth culture medium (25 ml) inoculated with Proteus mirabilis (ATCC 29906) or E. coli (ATCC 25922) 3000±300 CFU/ml, Compound 1 prepared in Preparation Example 1 was introduced in a content as described in the following Table 1, and the result was incubated for 16 hours at 35° C. in a shaking incubator to prepare a test culture medium. As a control, a control culture medium was prepared in the same manner except that the compound was not introduced in the test culture medium. For the test culture medium and the control culture medium, absorbance at a wavelength of 600 nm was measured using a UV-Vis spectrophotometer. Using the measurement results, a bacterial growth inhibition rate (%) was calculated according to the following Mathematical Formula 1.
(§3) (As: absorbance of test culture medium, A0: absorbance of control culture medium)

E. coli (ATCC 25922) = test: as above; type: cell-based; conditions: Escherichia coli, 16 hours at 35° C.; for Absorbance: 600 nm
Protocol: as §1, §2, §3

[3] = 1 phr of Compound 1 with super absorbent polymer
[4] = 2 phr of Compound 1 with super absorbent polymer
[5] = 5 phr of Compound 1 with super absorbent polymer
[6] = 8 phr of Compound 1 with super absorbent polymer
[7] = 10 phr of Compound 1 with super absorbent polymer
[8] = content 20 mg in 25 ml nutrient broth
[9] = content 50 mg in 25 ml nutrient broth
[10] = content 100 mg in 25 ml nutrient broth

**Q.** With `C=CC(=O)OCCC1CCCCN1C(=O)OC(C)CC` (stereo not shown) [Compound 1] as the compound, how does the “Deodorization rate (%) for Diacetyl” value [1, 3] read?
**A.** The value was 79%.

**Q.** What about the “Deodorization rate (%) for Dimethyl Disulfide” value [1, 3] of the same compound?
**A.** Its value is 65%.

**Q.** And the “Deodorization rate (%) for Dimethyl Trisulfide” value [1, 3]?
**A.** The value was 16%.

**Q.** And the “Deodorization rate (%) for Isovaleraldehyde” value [1, 3]?
**A.** Its value is 87%.

**Q.** And the “Deodorization rate (%) for p-Cresol” value [1, 3]?
**A.** Its value is 2%.

**Q.** What about the “Deodorization rate (%) for Diacetyl” value [1, 4] of the same compound?
**A.** Its value is 86%.

**Q.** What about the “Deodorization rate (%) for Dimethyl Disulfide” value [1, 4] of the same compound?
**A.** The value was 76%.

**Q.** And the “Deodorization rate (%) for Dimethyl Trisulfide” value [1, 4]?
**A.** The value was 27%.

**Q.** And the “Deodorization rate (%) for Isovaleraldehyde” value [1, 4]?
**A.** Its value is 92%.

**Q.** What about the “Deodorization rate (%) for p-Cresol” value [1, 4] of the same compound?
**A.** The value was 20%.

**Q.** What about the “Deodorization rate (%) for Diacetyl” value [1, 5] of the same compound?
**A.** The value was 91%.

**Q.** What about the “Deodorization rate (%) for Dimethyl Disulfide” value [1, 5] of the same compound?
**A.** The value was 84%.

**Q.** And the “Deodorization rate (%) for Dimethyl Trisulfide” value [1, 5]?
**A.** Its value is 61%.

**Q.** What about the “Deodorization rate (%) for Isovaleraldehyde” value [1, 5] of the same compound?
**A.** The value was 94%.

**Q.** What about the “Deodorization rate (%) for p-Cresol” value [1, 5] of the same compound?
**A.** The value was 37%.

**Q.** And the “Deodorization rate (%) for Diacetyl” value [1, 6]?
**A.** Its value is 92%.

**Q.** What about the “Deodorization rate (%) for Dimethyl Disulfide” value [1, 6] of the same compound?
**A.** The value was 88%.

**Q.** And the “Deodorization rate (%) for Dimethyl Trisulfide” value [1, 6]?
**A.** The value was 72%.

**Q.** And the “Deodorization rate (%) for Isovaleraldehyde” value [1, 6]?
**A.** Its value is 95%.

**Q.** What about the “Deodorization rate (%) for p-Cresol” value [1, 6] of the same compound?
**A.** The value was 46%.

**Q.** What about the “Deodorization rate (%) for Diacetyl” value [1, 7] of the same compound?
**A.** The value was 93%.

**Q.** And the “Deodorization rate (%) for Dimethyl Disulfide” value [1, 7]?
**A.** Its value is 88%.

**Q.** And the “Deodorization rate (%) for Dimethyl Trisulfide” value [1, 7]?
**A.** The value was 76%.

**Q.** What about the “Deodorization rate (%) for Isovaleraldehyde” value [1, 7] of the same compound?
**A.** The value was 95%.

**Q.** And the “Deodorization rate (%) for p-Cresol” value [1, 7]?
**A.** The value was 61%.

**Q.** And the “Bacterial Growth Inhibition Rate (%)” value [2, 8]?
**A.** The value was 55.6%.

**Q.** What about the Absorbance [2, 8] of the same compound?
**A.** Its Absorbance is 0.059.

**Q.** And the “Bacterial Growth Inhibition Rate (%)” value [2, 9]?
**A.** The value was 91.7%.

**Q.** And the Absorbance [2, 9]?
**A.** The Absorbance was 0.011.

**Q.** And the “Bacterial Growth Inhibition Rate (%)” value [2, 10]?
**A.** Its value is 89.5%.

**Q.** What about the Absorbance [2, 10] of the same compound?
**A.** Its Absorbance is 0.014.

**Q.** And the “Bacterial Growth Inhibition Rate (%)” value (E. coli (ATCC 25922); [8])?
**A.** The value was 62.9%.

**Q.** What about the Absorbance (E. coli (ATCC 25922); [8]) of the same compound?
**A.** The Absorbance was 0.063.

**Q.** And the “Bacterial Growth Inhibition Rate (%)” value (E. coli (ATCC 25922); [9])?
**A.** The value was 92.4%.

**Q.** What about the Absorbance (E. coli (ATCC 25922); [9]) of the same compound?
**A.** Its Absorbance is 0.013.

**Q.** What about the “Bacterial Growth Inhibition Rate (%)” value (E. coli (ATCC 25922); [10]) of the same compound?
**A.** The value was 88.8%.

**Q.** What about the Absorbance (E. coli (ATCC 25922); [10]) of the same compound?
**A.** The Absorbance was 0.019.
